Reference: patent US8778966B2, “Quinolinone derivatives as PARP and tank inhibitors” (Janssen Pharmaceutica, NV, priority 2007, dated 2014)

Test system: tubulin
Test: Tubulin polymerization assay
Type: biochemical
Parameters: key: a compound showing 0 to 50% inhibition at 20 μM is reported as score 1; Score 2 compounds are defined as compound showing more than 50% inhibition at 20 μM and less than 50% inhibition at 5 μM; a compound showing more than 50% inhibition at 5 μM is reported as score 3
Details: tested at 20 μM and 5 μM
Experimental: The tubulin polymerization assay is an adaptation of an assay originally described by Bonne, D. et al. (J. Biol. Chem., 1985, 260:2819-25). The assay kit was purchased from Cytoskeleton, Inc. (catalogue number BK011) and the assay was performed as described by the supplier with the following modifications. The assay was run in a 384-well black Proxiplate (Perkin Elmer) and volumes were adapted accordingly. The reactions were carried out in a final volume of 10 μl. Compounds were added to 25 μl of the reaction mix in 96-well PP plates (Corning) on ice and 10 μl of this mixture was dispensed into duplicates of the 384-well Proxiplates pre-warmed to 37° C. in a Fluoroskan Ascent plate reader (Thermo Scientific). Fluorescence measurements were taken every minute for one hour. The maximum slope of each well was determined (linear regression through 4 consecutive points) and polymerization was calculated as a percentage of polymerization observed in the absence of compound. Compounds were first measured at a concentration of 20 μM and then at 5 μM for those showing more than 50% inhibition at 20 μM as compared to the polymerization observed in the absence of compound. Results are reported in Table F-2 as scores defined as: a compound showing 0 to 50% inhibition at 20 μM is reported as score 1; a compound showing more than 50% inhibition at 5 μM is reported as score 3.

SMILES | tubulin polymerisation score
CCc1cc2ccc([C@@](C)(C#N)CCOc3ccccc3)cc2[nH]c1=O (single isomer, unassigned) [Compound 150] | 2
CCc1cc2ccc(C(C)(C#N)Cc3ccccc3F)cc2[nH]c1=O (stereo not drawn) [Compound 106] | 1 (a compound showing 0 to 50% inhibition at 20 μM is reported as score 1)
CCc1cc2ccc(C(C)(C#N)Cc3cccc(C(F)(F)F)c3)cc2[nH]c1=O (stereo not drawn) [Compound 109] | 2
CCc1cc2ccc(C(C)(C#N)Cc3cccc(F)c3)cc2[nH]c1=O (stereo not drawn) [Compound 112] | 1 (a compound showing 0 to 50% inhibition at 20 μM is reported as score 1)
CCc1cc2ccc(C(C)(C#N)Cc3cccc(OC)c3)cc2[nH]c1=O (stereo not drawn) [Compound 113] | 2
CCc1cc2ccc(C(C)(C#N)Cc3ccc(F)cc3)cc2[nH]c1=O (stereo not drawn) [Compound 115] | 2
CCc1cc2ccc(C(C)(C#N)Cc3ccc(C)cc3)cc2[nH]c1=O (stereo not drawn) [Compound 117] | 2
CCc1cc2ccc(C(C)(C#N)Cc3cc(F)cc(Cl)c3)cc2[nH]c1=O (stereo not drawn) [Compound 126] | 2
CCc1cc2ccc(C(C)(C#N)Cc3cc(F)cc(F)c3)cc2[nH]c1=O (stereo not drawn) [Compound 128] | 1 (a compound showing 0 to 50% inhibition at 20 μM is reported as score 1)
CCc1cc2ccc(C(C)(C#N)Cc3cccc(Cl)c3F)cc2[nH]c1=O (stereo not drawn) [Compound 130] | 2
CCc1cc2ccc(C(C)(C#N)Cc3ccc(F)cc3F)cc2[nH]c1=O (stereo not drawn) [Compound 137] | 1 (a compound showing 0 to 50% inhibition at 20 μM is reported as score 1)
CCc1cc2ccc(C(C)(C#N)Cc3c(F)cccc3F)cc2[nH]c1=O (stereo not drawn) [Compound 138] | 1 (a compound showing 0 to 50% inhibition at 20 μM is reported as score 1)
CCc1cc2ccc(C(C)(C#N)CCOc3cccc(C)c3)cc2[nH]c1=O (stereo not drawn) [Compound 143] | 2
CCc1cc2ccc(C(C)(C#N)CCOc3ccccc3C)cc2[nH]c1=O (stereo not drawn) [Compound 148] | 1 (a compound showing 0 to 50% inhibition at 20 μM is reported as score 1)
CCc1cc2ccc(C(C)(C#N)CCOc3ccc(C)cc3)cc2[nH]c1=O (stereo not drawn) [Compound 149] | 2
CCc1cc2ccc(C(C)(C#N)CCOc3cccc(Cl)c3)cc2[nH]c1=O (stereo not drawn) [Compound 151] | 2
CCc1cc2ccc(C(C)(C#N)CCOc3ccccc3Cl)cc2[nH]c1=O (stereo not drawn) [Compound 152] | 2
CCc1cc2ccc(C(C)(C#N)CCOc3ccccc3Br)cc2[nH]c1=O (stereo not drawn) [Compound 153] | 2
CCc1cc2ccc(C(C)(C#N)CCOc3ccc(C#N)cc3)cc2[nH]c1=O (stereo not drawn) [Compound 161] | 2
CCc1cc2ccc(C(C)(C#N)CCOc3cccc4c3OCCO4)cc2[nH]c1=O (stereo not drawn) [Compound 163] | 2

Test system: not given
Test: not given
Details: not given

melting point | SMILES
241 °C | CCc1cc2ccc(C(C)(C#N)CC3COc4ccccc4O3)cc2[nH]c1=O (single isomer, unassigned) [Compound 48]
> 260 °C | CCc1cc2ccc(C(C)(C#N)Cc3cccc(C(=O)O)c3)cc2[nH]c1=O (stereo not drawn) [Compound 10]
152 °C | CCc1cc2ccc(C(C)(C#N)Cc3cccc(-c4nc(C)no4)c3)cc2[nH]c1=O (stereo not drawn) [Compound 11]
140 °C | CCc1cc2ccc(C(C)(C#N)Cc3cccc(C(=O)OC)c3)cc2[nH]c1=O (stereo not drawn) [Compound 12]
182 °C | CCc1cc2ccc(C(C)(C#N)Cc3cccc(C(=O)NC)c3)cc2[nH]c1=O (stereo not drawn) [Compound 13]
80 °C | CCc1cc2ccc(C(C)(C#N)Cc3cccc(NS(C)(=O)=O)c3)cc2[nH]c1=O (stereo not drawn) [Compound 14]
187 °C | CCc1cc2ccc(C(C)(C#N)Cc3cccc(N)c3)cc2[nH]c1=O (stereo not drawn) [Compound 15]
121 °C | CCc1cc2ccc(C(C)(C#N)Cc3cccc(NC(=O)N4CCOCC4)c3)cc2[nH]c1=O (stereo not drawn) [Compound 16]
192 °C | CCc1cc2ccc([C@](C)(C#N)C[C@@H]3CCc4cc(C)ccc4O3)cc2[nH]c1=O [Compound 251]
184 °C | CCc1cc2ccc([C@@](C)(C#N)C[C@@H]3CCc4cc(C)ccc4O3)cc2[nH]c1=O [Compound 252]
